Assay results published in patent publication US5166198A, “Antiviral phosphonylalkoxy purines” (Beecham p.l.c., priority 1989, dated 1992).
Values after ≈ are worked out from the molar mass of the structure shown.

What was measured:
Assay type in all cases: cell-based
[1] = tested on: visna virus (strain K184); assay: CPE Inhibition Test (Established Monolayer) for Lentiviruses (in SCP cells); conditions: Visna-maedi virus, read-out: MIC Visna Virus (minimum concentration giving complete protection of the cell monolayers)
Description: 3. CPE Inhibition Test (Established Monolayer) for Lentiviruses
3×10^4 sheep choroid plexus (SCP) cells were plated into individual wells of a 96 well microtitre plate in 100 μl of Eagle's MEM with Hanks' salts containing 10% heat inactivated foetal calf serum (FCS). When monolayers had become established (after 1 or 2 days growth) they were washed with 200 μl of maintenance medium (Eagle's MEM with Hanks' salts containing 0.5% FCS) and infected with 100 μl of visna virus (strain K184) in maintenance medium (30 TCID50 /ml). Test samples were diluted with maintenance medium in further 96 well microtitre plates over the range 200-0.06 μg/ml by 3-fold dilution steps. 100 μl of the diluted samples was then transferred directly onto virus-infected monolayers (final concentration range therefore […]) and incubated at in a humidified atmosphere containing 5% CO2 until virus-induced CPE was maximal in the untreated virus-infected controls (usually 12-14 days). The plates were fixed with formal saline and stained with crystal violet. Virus-induced CPE was then scored microscopically and the minimum concentration of sample giving complete protection of the cell monolayers (MIC) determined.

[2] = tested on: herpes simplex virus 2 (HSV-2; strain MS); assay: Plaque Reduction Test for Herpes Simplex Virus 2 (in MRC-5 cells); conditions: Human alphaherpesvirus 2, MRC5; MS strain in MRC-5 cells; read-out: IC50 Herpes Simplex virus Type 2
Description: (§1) 1. Plaque Reduction Test for Herpes Simplex Viruses 1 and 2.
(§2) Cells (Vero or MRC-5) were grown to confluence in 24 well multi-dishes (well diameter=1.5 cm). The drained cell monolayers were each infected with approximately 50 infectious particles of herpes simplex virus 1 (HSV-1; strain HFEM) or herpes simplex virus 2 (HSV-2; strain MS) in 100 μl of phosphate-buffered saline. The virus was adsorbed for 1 hour at room temperature. After adsorption, residual inoculum was removed from each well and replaced with 0.5 ml of Eagle's MEM containing 5% newborn calf serum and 0.9% agarose (A37). Once the agarose had set, dilutions of the test compound, which had been prepared in Eagle's MEM (containing 5% newborn calf serum), were added, each well receiving 0.5 ml of liquid overlay. The test compound was diluted to give the following series of concentrations: 200, 60, 20, 6 . . . 0.06 μg/ml; final concentrations in the assay ranged, therefore, between 100 μg/ml and 0.03 μg/ml. The infected cultures were incubated at 37° C. in a humidified atmosphere of 5% CO2 until plaques were clearly visible (2 or 3 days for Vero cells, usually 1 day for MRC-5 cells).
(§3) Cultures from 1 and 2 were fixed in formal saline, the agarose overlays were carefully washed off, and then the cell monolayers were stained with carbol fuchsin. A stereo microscope was used to count plaques. The IC50 (concentration of drug which inhibits the number of plaques formed by 50% relative to the number of plaques observed in virus control monolayers) of the test compound was calculated. In addition, the monolayers were examined for evidence of drug-induced cytotoxicity; the minimum concentration at which cytotoxicity occurs was recorded.

[3] = tested on: varicella zoster virus (VZV; Ellen strain); assay: Plaque Reduction Test for Varicella Zoster-Virus (in MRC-5 cells); conditions: Human alphaherpesvirus 3, MRC5; Ellen strain in MRC-5 cells
Description: 2. Plaque Reduction Test for Varicella Zoster-Virus
as §2, with “MRC-5 cells” for “Cells (Vero or MRC-5)”, “varicella zoster” for “herpes simplex”, “(VZV; Ellen strain)” for “1 (HSV-1; strain HFEM) or herpes simplex virus 2 (HSV-2; strain MS)”, “heat-inactivated foetal” for “newborn”, “(5” for “(2”, “6 days).” for “3 days for Vero cells, usually 1 day for MRC-5 cells).”
as §3

[4] = tested on: herpes simplex virus 1 (HSV-1; strain HFEM); assay: Plaque Reduction Test for Herpes Simplex Virus 1 (in Vero cells); conditions: Human alphaherpesvirus 1, read-out: IC50 Herpes Simplex virus Type 1
Description: as §1, §2, §3

Compound	MIC [1] [µg/mL]	IC50 [2] [µg/mL]	IC50 [3] [µg/mL]	IC50 [4] [µg/mL]
Nc1nc2c(ncn2OCCCP(=O)(O)O)c(=O)[nH]1 [Example 1, 9-(3-Phosphonopropoxy)guanine]	3 (≈ 10.4 µM)	> 100	73 (≈ 252 µM)	> 100
Nc1nc2c(ncn2OCCCCP(=O)(O)O)c(=O)[nH]1 [Example 3, 9-(4-Phosphonobutoxy)guanine]	1 (≈ 3.3 µM)	23 (≈ 75.9 µM)	6 (≈ 19.8 µM)	62 (≈ 204 µM)
Nc1nc(N)c2ncn(OCCCCP(=O)(O)O)c2n1 [Example 5, 2,6-Diamino-9-(4-phosphonobutoxy)purine]	10 (≈ 33.1 µM)	> 100	17 (≈ 56.2 µM)	> 100
Nc1ncnc2c1ncn2OCCCCP(=O)(O)O [Example 7, 9-(4-Phosphonobutoxy)adenine]	100 (≈ 348 µM)	> 100	> 100	> 100
Nc1ncnc2c1ncn2OC(CO)CCP(=O)(O)O (stereo not shown) [Example 11]	30 (≈ 98.9 µM)	> 100	> 100	> 100
Nc1nc2c(ncn2OCC(O)CCP(=O)(O)O)c(=O)[nH]1 (stereo not shown) [Example 13, 9-(2-Hydroxy-4-phosphonobutoxy)guanine]	10 (≈ 31.3 µM)	> 100	29 (≈ 90.8 µM)	> 100
Nc1ncnc2c1ncn2OCC(O)CCP(=O)(O)O (stereo not shown) [Example 15, 9-(2-Hydroxy-4-phosphonobutoxy)adenine]	100 (≈ 330 µM)	> 100	> 100	> 100
Nc1nc2c(ncn2OC(CO)CCP(=O)(O)O)c(=O)[nH]1 (stereo not shown) [Example 16, 9-[1-(Hydroxymethyl)-3-phosphonopropoxy]guanine]	100 (≈ 313 µM)	> 100	> 100	> 100
Nc1nc2c(ncn2OCC(CO)CCP(=O)(O)O)c(=O)[nH]1 (stereo not shown) [Example 18, 9-[2-(Hydroxymethyl)-4-phosphonobutoxy]guanine]	1 (≈ 3 µM)	> 100	5 (≈ 15 µM)	> 100
Nc1nc(N)c2ncn(OCC(CO)CCP(=O)(O)O)c2n1 (stereo not shown) [Example 20]	10 (≈ 30.1 µM)	> 100	17 (≈ 51.2 µM)	> 100
